Some test systems named below: BT-549; Malme-3M; SK-OV-3; OVCAR-4; EKVX; DU-145; ACHN; MDA-MB-435; HOP-62; NCI-H460; U-251; OVCAR-5; Hs-578T; CAKI-1; T47D; SR; UACC-257; COLO 205; A498; RXF 393.
What all share (assay): inhibition of tumour cell growth, NCI panel, 48 h

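Following 48 hours of exposure in 96-well plates, responses at five concentrations were used to interpolate endpoints linearly. Here, GI50 denotes the concentration required for 50% inhibition of growth.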 Active and inactive are the calls of the source. Rule as the data show it: active = GI50 up to about 1.1 µM and inactive = higher. A value given as a limit tells only on which side of the number the result lay.

As for `O=C(O)c1nc(-c2ccccc2)[nH]c1C(=O)O`, the GI50 was 17.4 µM (inactive) in the assay with BT-549; 15.3 µM (inactive) with Malme-3M; 18.4 µM (inactive) in the assay on SK-OV-3; 16.8 µM (inactive) in the assay on OVCAR-4; 17.4 µM (inactive) in the assay on EKVX; 15 µM (inactive) with DU-145. Besides, the GI50 in the assay on ACHN is 16.8 µM (inactive); in the assay with MDA-MB-435, 8.87 µM (inactive); in the assay with HOP-62, 16 µM (inactive); with NCI-H460, 15.4 µM (inactive); in the assay on U-251, 4.18 µM (inactive); in the assay on OVCAR-5, 17.2 µM (inactive). The GI50 with Hs-578T is 24.8 µM (inactive); in the assay with CAKI-1 it was 14.4 µM (inactive); with T47D it was 15.3 µM (inactive); in the assay with SR it was 0.0188 µM (active); in the assay with UACC-257, 16.6 µM (inactive); in the assay with COLO 205, 17 µM (inactive). The values for the GI50 in the assay on A498 and in the assay on RXF 393 were 15.4 µM (inactive) and 13.5 µM (inactive), respectively.
Turning to `Cc1ccc(NC(=O)COc2ccc(Cl)cc2)cc1Cl`, the GI50 in the assay with BT-549 was 70.3 µM (inactive); with Malme-3M it was 30.5 µM (inactive); in the assay on SK-OV-3, 52.4 µM (inactive); in the assay with OVCAR-4, > 100 µM (inactive); in the assay on EKVX, 46.3 µM (inactive); with DU-145, > 100 µM (inactive). For the same molecule, the GI50 in the assay with ACHN is 42.7 µM (inactive); in the assay on MDA-MB-435 it was > 100 µM (inactive); in the assay with HOP-62, 20 µM (inactive); with NCI-H460, > 100 µM (inactive); in the assay with U-251, 27.4 µM (inactive); in the assay with OVCAR-5, 68.1 µM (inactive). The GI50 in the assay with Hs-578T was 14.2 µM (inactive); in the assay on CAKI-1 it was 18.7 µM (inactive); with T47D, > 100 µM (inactive); in the assay on SR, 10.1 µM (inactive); in the assay with UACC-257, 83.4 µM (inactive); in the assay on COLO 205 it was > 100 µM (inactive). In addition, the GI50 with A498 is 45.3 µM (inactive); with RXF 393, 24.7 µM (inactive).
For `COc1ccc(C(=O)Nc2ccc3oc(-c4ccccc4)nc3c2)cc1`, the GI50 in the assay on BT-549 was > 100 µM (inactive); in the assay on Malme-3M it was > 100 µM (inactive); in the assay on SK-OV-3, 56.4 µM (inactive); with OVCAR-4, > 100 µM (inactive); with EKVX, > 100 µM (inactive); in the assay with DU-145 it was > 100 µM (inactive). In addition, the GI50 is > 100 µM (inactive) in the assay on ACHN; > 100 µM (inactive) in the assay on MDA-MB-435; 76.6 µM (inactive) in the assay with HOP-62; > 100 µM (inactive) in the assay on NCI-H460; 61.7 µM (inactive) in the assay with U-251; > 100 µM (inactive) in the assay with OVCAR-5. Moreover, the GI50 with Hs-578T, in the assay with CAKI-1, in the assay with T47D, in the assay with SR, with UACC-257 and in the assay on COLO 205 was > 100 µM (inactive) throughout. Besides, the GI50 in the assay on A498 and with RXF 393 was > 100 µM (inactive) throughout.
As for `CCN1c2cc(Br)cc3[nH]c(=O)n(c23)CCC1C` (stereo not given), the GI50 in the assay with BT-549 was 6.85 µM (inactive); in the assay on Malme-3M, 21.5 µM (inactive); in the assay on SK-OV-3, 19.4 µM (inactive); in the assay on OVCAR-4 it was 20 µM (inactive); in the assay with EKVX it was 1.43 µM (inactive); in the assay on DU-145, 18.3 µM (inactive). Besides, the GI50 in the assay on ACHN was 19.5 µM (inactive); with MDA-MB-435, 4.18 µM (inactive); in the assay on HOP-62, 18 µM (inactive); with NCI-H460 it was 17 µM (inactive); in the assay on U-251, 14.8 µM (inactive); in the assay on OVCAR-5, 20.2 µM (inactive). Further, the GI50 in the assay with Hs-578T is 3.46 µM (inactive); with CAKI-1, 11.6 µM (inactive); with T47D, 17.4 µM (inactive); in the assay on SR it was 6.56 µM (inactive); with UACC-257, 17.4 µM (inactive); in the assay on COLO 205 it was 14.9 µM (inactive). Moreover, the values for the GI50 with A498 and in the assay on RXF 393 were 12.3 µM (inactive) and 11.6 µM (inactive), respectively.
As for `CC(=O)OC/C=C(/C=C/CNC1CCCCC1)OC(C)=O`, the GI50 in the assay on BT-549 is 16.9 µM (inactive); with Malme-3M it was 14.9 µM (inactive); with SK-OV-3, 19.6 µM (inactive); in the assay on OVCAR-4, 20.8 µM (inactive); with EKVX it was 16.5 µM (inactive); with DU-145, 17 µM (inactive). In addition, the GI50 is 16.4 µM (inactive) in the assay with ACHN; 16 µM (inactive) with MDA-MB-435; 16.5 µM (inactive) in the assay with HOP-62; 24.1 µM (inactive) with NCI-H460; 17.8 µM (inactive) in the assay with U-251; 16.3 µM (inactive) in the assay on OVCAR-5. For the same molecule, the GI50 in the assay with Hs-578T is 36.3 µM (inactive); with CAKI-1, 13.8 µM (inactive); in the assay on T47D it was 7.26 µM (inactive); with SR it was 10.7 µM (inactive); with UACC-257 it was 15.1 µM (inactive); in the assay with COLO 205, 13.9 µM (inactive). Also, the figures for the GI50 in the assay with A498 and with RXF 393 were 19.8 µM (inactive) and 17.9 µM (inactive), respectively.
For `CC(C)(C)c1cc(OCc2nnc(S)n2N)c(Cl)cc1OCc1nnc(S)n1N`, the GI50 in the assay on BT-549 is 37.5 µM (inactive); in the assay with Malme-3M it was 38.1 µM (inactive); with SK-OV-3 it was > 100 µM (inactive); with OVCAR-4, 43.3 µM (inactive); in the assay with EKVX, 49.7 µM (inactive); in the assay on DU-145, 59 µM (inactive). Also, the GI50 is 63.7 µM (inactive) in the assay with ACHN; 39.5 µM (inactive) in the assay on MDA-MB-435; 59 µM (inactive) in the assay with HOP-62; 24 µM (inactive) in the assay with NCI-H460; 29.7 µM (inactive) in the assay with U-251; 63.7 µM (inactive) in the assay on OVCAR-5. Further, the GI50 was 43 µM (inactive) in the assay on Hs-578T; > 100 µM (inactive) with CAKI-1; 30.6 µM (inactive) in the assay on T47D; 22.3 µM (inactive) in the assay with SR; 33 µM (inactive) in the assay on UACC-257; 42.2 µM (inactive) in the assay with COLO 205. The GI50 in the assay with A498 is 30.6 µM (inactive); in the assay with RXF 393, 26.2 µM (inactive).
With `CCC(C(=O)c1cccs1)C(O)(C(F)(F)F)C(F)(F)F` (stereo not given), the GI50 in the assay on BT-549, in the assay on Malme-3M, in the assay on SK-OV-3, in the assay on OVCAR-4, in the assay on EKVX and with DU-145 was > 100 µM (inactive) throughout. In addition, the GI50 in the assay on ACHN, in the assay on MDA-MB-435, in the assay on HOP-62, in the assay with NCI-H460, in the assay with U-251 and with OVCAR-5 was > 100 µM (inactive) throughout. The GI50 in the assay on Hs-578T, in the assay on CAKI-1, in the assay on T47D, in the assay with SR, with UACC-257 and in the assay on COLO 205 was > 100 µM (inactive) in each case. Also, the GI50 in the assay with A498 and in the assay on RXF 393 was > 100 µM (inactive) throughout.
With `C[N+]1(CCCCN2c3ccccc3Sc3cc(N=[N+]=[N-])ccc32)CCN(C(=O)CCNC(=O)Cc2ccc(C(=O)c3ccccc3)cc2)CC1`, the GI50 in the assay on BT-549 was 29.2 µM (inactive); in the assay on Malme-3M, 18.7 µM (inactive); with SK-OV-3, 29 µM (inactive); in the assay with OVCAR-4, 21.2 µM (inactive); with EKVX, 31.9 µM (inactive); in the assay on DU-145, 19.1 µM (inactive). Besides, the GI50 with ACHN was 19.2 µM (inactive); in the assay on MDA-MB-435, 26.4 µM (inactive); with HOP-62, 22.6 µM (inactive); with NCI-H460, 24.6 µM (inactive); with U-251, 21.6 µM (inactive); in the assay on OVCAR-5 it was 21.7 µM (inactive). The GI50 is 34 µM (inactive) in the assay with Hs-578T; 25.2 µM (inactive) with CAKI-1; 21.3 µM (inactive) in the assay on T47D; 18.7 µM (inactive) with SR; 31.3 µM (inactive) with UACC-257; 14.7 µM (inactive) in the assay on COLO 205. The GI50 was 26.4 µM (inactive) in the assay with A498 and 31.5 µM (inactive) in the assay on RXF 393.
On to `COC1C(OC(=O)/C=C/C=C/C=C/C=C/C(=O)O)CCC2(CO2)C1C1(C)OC1CC=C(C)C` (stereo not given), for which the GI50 with BT-549 is 21.6 µM (inactive); in the assay with Malme-3M, 26.2 µM (inactive); in the assay with SK-OV-3, > 59.6 µM (inactive); in the assay on OVCAR-4, 21.1 µM (inactive); with EKVX it was 27.2 µM (inactive); in the assay with DU-145 it was 35.2 µM (inactive). For the same molecule, the GI50 is 18.5 µM (inactive) in the assay with ACHN; 14.6 µM (inactive) in the assay on MDA-MB-435; 62.1 µM (inactive) in the assay with HOP-62; 0.112 µM (active) with NCI-H460; 18.5 µM (inactive) in the assay with U-251; > 78.2 µM (inactive) in the assay on OVCAR-5. In addition, the GI50 in the assay with Hs-578T was 40.2 µM (inactive); in the assay on CAKI-1 it was 43.8 µM (inactive); in the assay with T47D it was 18.4 µM (inactive); in the assay with SR, 20.6 µM (inactive); with UACC-257, 34 µM (inactive); with COLO 205, 12.4 µM (inactive). The GI50 in the assay with A498 was > 100 µM (inactive); in the assay on RXF 393, 48.8 µM (inactive).
With `CC(C)(OCc1ccccc1)c1ccccc1P(c1ccccc1)c1ccccc1`, the GI50 in the assay on BT-549 was 28.8 µM (inactive); in the assay on Malme-3M it was 26.2 µM (inactive); in the assay with SK-OV-3, > 100 µM (inactive); with OVCAR-4, 31.3 µM (inactive); with EKVX, 32.9 µM (inactive); in the assay with DU-145, 82.6 µM (inactive). The GI50 is 44.8 µM (inactive) with ACHN; 37.9 µM (inactive) in the assay on MDA-MB-435; 60 µM (inactive) with HOP-62; 49.7 µM (inactive) in the assay with NCI-H460; 27.9 µM (inactive) with U-251; > 100 µM (inactive) in the assay with OVCAR-5. Further, the GI50 in the assay with Hs-578T is 47.9 µM (inactive); in the assay on CAKI-1, 31.7 µM (inactive); with T47D it was 28.4 µM (inactive); with SR it was 34.8 µM (inactive); with UACC-257, 22.3 µM (inactive); in the assay with COLO 205, 27 µM (inactive). Also, the GI50 in the assay on A498 was 89.3 µM (inactive); in the assay with RXF 393, > 100 µM (inactive).
